Activity calls are given as the source filed them. No cut-off for these calls is given here.
Assays:
[1] = organism: Rattus norvegicus; assay: Inhibition of prostate weight in testosterone treated castrated immature Sprague-Dawley rat at 2 mg/day; format: functional, Prostate gland; conditions: for inhibition: Prostate gland
[2] = organism: Rattus norvegicus; assay: Inhibition of prostate weight in testosterone treated castrated immature Sprague-Dawley rat at 0.3 mg/day
[3] = organism: Rattus norvegicus; assay: Inhibition of prostate weight in testosterone treated castrated immature Sprague-Dawley rat; format: functional, Prostate gland
[4] = organism: Rattus norvegicus; assay: Inhibition of prostate weight in testosterone treated castrated mature Sprague-Dawley rat; format: functional; conditions: Prostate gland, read-out: ID50 (the source's name)
[5] = target: T1, Androgen receptor (Homo sapiens) (UniProt P10275); assay: Antagonist activity at androgen receptor expressed in COS cell at 3000 nM by whole cell assay; format: functional, cell-based
T1 sequence (whole entry): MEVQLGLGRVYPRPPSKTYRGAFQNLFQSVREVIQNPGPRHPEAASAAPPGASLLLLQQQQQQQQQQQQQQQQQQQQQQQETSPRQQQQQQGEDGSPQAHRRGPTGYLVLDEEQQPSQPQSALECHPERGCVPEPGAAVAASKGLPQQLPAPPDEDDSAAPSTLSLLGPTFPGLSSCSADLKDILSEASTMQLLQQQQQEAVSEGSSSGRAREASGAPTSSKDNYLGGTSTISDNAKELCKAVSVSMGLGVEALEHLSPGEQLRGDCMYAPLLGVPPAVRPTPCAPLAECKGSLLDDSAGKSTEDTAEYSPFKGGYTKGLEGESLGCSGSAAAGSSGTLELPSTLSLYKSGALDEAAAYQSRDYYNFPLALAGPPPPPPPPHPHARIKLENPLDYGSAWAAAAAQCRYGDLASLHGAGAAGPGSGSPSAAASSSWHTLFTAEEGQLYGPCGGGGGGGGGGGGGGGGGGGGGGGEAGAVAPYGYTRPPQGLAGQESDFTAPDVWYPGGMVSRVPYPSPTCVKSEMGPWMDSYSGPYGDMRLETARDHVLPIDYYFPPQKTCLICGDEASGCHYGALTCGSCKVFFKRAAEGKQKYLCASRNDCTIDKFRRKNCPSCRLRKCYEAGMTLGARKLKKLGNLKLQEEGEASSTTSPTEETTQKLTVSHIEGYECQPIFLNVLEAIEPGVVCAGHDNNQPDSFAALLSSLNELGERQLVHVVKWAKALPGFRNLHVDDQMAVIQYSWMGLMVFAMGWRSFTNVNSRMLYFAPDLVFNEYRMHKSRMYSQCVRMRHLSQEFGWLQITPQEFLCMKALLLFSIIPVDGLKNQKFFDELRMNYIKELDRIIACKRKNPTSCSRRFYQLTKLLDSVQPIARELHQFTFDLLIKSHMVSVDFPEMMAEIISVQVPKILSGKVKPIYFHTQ

[6] = Bioavailability in orally dosed Sprague-Dawley rat; format: ADME, organism-based; conditions: in vivo, po
[7] = Half life in orally dosed Sprague-Dawley rat; format: ADME, organism-based; conditions: in vivo, po
[8] = target: T1, Androgen receptor (Homo sapiens); assay: Antagonist activity at androgen receptor expressed in COS cell by whole cell assay; format: functional, cell-based

SMILES | Inhibition [1] [%] | also measured
COC(c1nc2cc(Cl)c(Cl)cc2n1C)C(F)(F)F (stereo not drawn) | 60 | –
OC(c1nc2cc(Cl)c(Cl)cc2[nH]1)C(F)(F)F (stereo in doubt; (+)-1) | – | Inhibition [2]: 81%; ID50 [3]: 0.032 mg/day
CCSCC(C)(O)c1nc2cc(Cl)c(Cl)cc2n1C (stereo not drawn) | 86 | –
CC(O)(CS(=O)(=O)c1ccc(F)cc1)C(=O)Nc1ccc(C#N)c(C(F)(F)F)c1 (stereo not drawn) [BICALUTAMIDE] | 70 | ID50 [3]: 0.23 mg/day; ED50 [4]: 30 mg/kg
CSCn1c(C(C)(C)O)nc2cc(Cl)c(Cl)cc21 | 96 | –
CC(O)(CS(C)(=O)=O)c1nc2cc(Cl)c(Cl)cc2[nH]1 (stereo not drawn) | – | inhibition [1]: inactive
CC(O)(c1nc2cc(Cl)c(Cl)cc2[nH]1)c1cccs1 (stereo not drawn) | 16 | –
Cn1c(C(C)(O)CS(=O)(=O)Cc2ccccc2)nc2cc(Cl)c(Cl)cc21 (stereo not drawn) | 16 | –
CCn1c(C(C)(O)CS(=O)(=O)CC)nc2cc(Cl)c(Cl)cc21 (stereo not drawn) | 74 | inhibition [5]: 20%; bioavailability [6]: 99%; half-life [7]: 900 min
CCSCC(C)(O)c1nc2cc(Cl)c(Cl)cc2n1CC (stereo not drawn) | 79 | bioavailability [6]: 15%; half-life [7]: 60 min
CC(O)(CS(=O)(=O)c1ccc(F)cc1)c1nc2cc(Cl)c(Cl)cc2[nH]1 (stereo not drawn) | 29 | –
Cc1ccc(S(=O)(=O)CC(C)(O)c2nc3cc(Cl)c(Cl)cc3[nH]2)cc1 (stereo not drawn) | 11 | –
CCC(CC)c1nc2cc(Cl)c(Cl)cc2n1C | 77 | –
CCn1c(C(C)(C)O)nc2cc(Cl)c(Cl)cc21 | 82 | –
CC(C)(O)c1nc2cc(Cl)c(C(F)(F)F)cc2[nH]1 | 42 | –
OC(c1nc2cc(Cl)c(Cl)cc2[nH]1)C(F)(F)F (stereo in doubt; 1) | 96 | ID50 [3]: 0.15 mg/day; bioavailability [6]: 132%; half-life [7]: 882 min; ED50 [4]: 30 mg/kg
CC(C)CS(=O)(=O)CC(C)(O)c1nc2cc(Cl)c(Cl)cc2n1C (stereo not drawn) | 7 | –
CC(O)(c1nc2cc(Cl)c(Cl)cc2[nH]1)c1ccco1 (stereo not drawn) | 20 | –
CCC(C)c1nc2cc(Cl)c(Cl)cc2n1C (stereo not drawn) | – | inhibition [1]: inactive
CC(C)(O)c1nc2cc(Cl)c(Cl)cc2[nH]1 | 77 | inhibition [5]: 90%; bioavailability [6]: 100%; half-life [7]: 240 min; ID50 [8]: 80 nM
CC(C)c1nc2cc(Cl)c(Cl)cc2n1C | 93 | –
CC(C)c1nc2cc(Cl)c(Cl)cc2[nH]1 | 11 | –
CCCS(=O)(=O)CC(C)(O)c1nc2cc(Cl)c(Cl)cc2n1C (stereo not drawn) | 26 | –
CC(O)(c1nc2cc(Cl)c(Cl)cc2[nH]1)C(F)(F)F (stereo not drawn) | 74 | –
CC(O)(CC#N)c1nc2cc(Cl)c(Cl)cc2[nH]1 (stereo not drawn) | 64 | –
Cn1c(C(C)(O)CSCc2ccccc2)nc2cc(Cl)c(Cl)cc21 (stereo not drawn) | 63 | –
CCn1c(C(C)C)nc2cc(Cl)c(Cl)cc21 | 82 | –

SMILES | Inhibition [1] [%] | also measured
Cn1c(C(C)(O)CSc2ccc(F)cc2)nc2cc(Cl)c(Cl)cc21 (stereo not drawn) | 6 | –
CCCn1c(C(C)(C)O)nc2cc(Cl)c(Cl)cc21 | 53 | –
Cn1c(C(C)(O)CSCC(F)(F)F)nc2cc(Cl)c(Cl)cc21 (stereo not drawn) | 6 | –
CCCSCC(C)(O)c1nc2cc(Cl)c(Cl)cc2n1C (stereo not drawn) | 40 | –
CC(C)(O)c1nc2cc(F)c(Cl)cc2[nH]1 | 57 | –
CC(O)(CO)c1nc2cc(Cl)c(Cl)cc2[nH]1 (stereo not drawn) | 67 | –
CCS(=O)(=O)CC(C)(O)c1nc2cc(Cl)c(Cl)cc2n1C (stereo not drawn) | 79 | –
CCC(CC)c1nc2cc(Cl)c(Cl)cc2[nH]1 | 80 | –
CCOCC(C)(O)c1nc2cc(Cl)c(Cl)cc2n1C (stereo not drawn) | 10 | –
CCCCn1c(C(C)(C)O)nc2cc(Cl)c(Cl)cc21 | – | inhibition [1]: inactive
CC(C)CSCC(C)(O)c1nc2cc(Cl)c(Cl)cc2n1C (stereo not drawn) | 9 | –
CC(C)(O)c1nc2cc(C#N)c(C(F)(F)F)cc2[nH]1 | 63 | –
Cn1c(C(C)(O)CS(=O)(=O)CC(F)(F)F)nc2cc(Cl)c(Cl)cc21 (stereo not drawn) | 38 | –
Cn1c(C(C)(C)O)nc2cc(Cl)c(Cl)cc21 | 91 | bioavailability [6]: 100%; half-life [7]: 180 min
FC(F)(F)Cc1nc2cc(Cl)c(Cl)cc2[nH]1 | 90 | ID50 [3]: 0.097 mg/day; inhibition [5]: 30%; half-life [7]: 318 min; ED50 [4]: 18 mg/kg
CCCC(C)c1nc2cc(Cl)c(Cl)cc2[nH]1 (stereo not drawn) | 32 | –
CCC(C)c1nc2cc(Cl)c(Cl)cc2[nH]1 (stereo not drawn) | 88 | –
Cn1c(CC(F)(F)F)nc2cc(Cl)c(Cl)cc21 | 60 | –
CC(C)(O)c1nc2cc(Cl)c(Cl)cc2n1CC#N | 5 | –
CCC(CC)c1nc2cc(Cl)c(Cl)cc2n1CC | 3 | –
CCc1nc2cc(Cl)c(Cl)cc2[nH]1 | – | inhibition [1]: inactive
COCn1c(C(C)(C)O)nc2cc(Cl)c(Cl)cc21 | 90 | –
CC(O)c1nc2cc(Cl)c(Cl)cc2[nH]1 (stereo not drawn) | – | inhibition [1]: inactive
CCCC(C)c1nc2cc(Cl)c(Cl)cc2n1C (stereo not drawn) | 23 | –
OC(c1nc2cc(Cl)c(Cl)cc2[nH]1)C(F)(F)F (stereo in doubt; (-)-1) | – | Inhibition [2]: 80%; ID50 [3]: 0.12 mg/day
Cn1c(C(O)(O)C(F)(F)F)nc2cc(Cl)c(Cl)cc21 | 94 | ID50 [3]: 0.17 mg/day; ED50 [4]: 23 mg/kg

Source: ChEMBL document CHEMBL1138416, “Synthesis and SAR of potent and selective androgen receptor antagonists: 5,6-Dichloro-benzimidazole derivatives” (Bioorg Med Chem Lett, 2007)
